# In patent US11191850B2, “Molecular probes for detection and imaging of pancreatic cancer” (Portland State University, priority 2016, dated 2021):
# Entries after “also recorded” stand apart in the source; their conditions may differ. Read-outs that look alike come from different tables or passages of the source.
# How the values were obtained:
# healthy CD-1 mice [1] = conditions: mouse, in vivo, iv
# Description: (§2) Animals. Approval for the use of all animals in this study was obtained from the Institutional Animal Care and Use Committee (IACUC) at Oregon Health and Science University (OHSU). Male CD-1 mice weighing 22-24 g were purchased from Charles River Laboratories (Wilmington, MA). […] All animals were placed on 5V75 chlorophyll free diet from TestDiet (St. Louis, Mo.) 1 week prior to any imaging studies. Prior to surgery, mice were anaesthetized with 100 mg/kg ketamine and 10 mg/kg xylazine (Patterson Veterinary, Devens, Mass.). The peritoneal cavity was surgically exposed by removal of overlaying skin and muscle tissue to image fluorophore biodistribution following intravenous injection.
# (§3) Intraoperative fluorescence imaging system. In vivo murine biodistribution images and macroscopic images of resected tissues were acquired using a custom-built small animal imaging system capable of real time color and fluorescence imaging. The imaging system consists of a QImaging EXi Blue monochrome camera (Surrey, British Columbia, Calif.) for fluorescence detection with a removable Bayer filter for collecting co-registered color and fluorescence images. A PhotoFluor II light source (89 North, Burlington, Vt.) was focused onto the surgical field through a liquid light guide and used unfiltered for white light illumination. […] All filters were obtained from Chroma technology (Bellows Falls, Vt.). Camera exposure times ranged from 50 to 200 ms for fluorescence image collection.
# (§4) Systemic administration of fluorescent compounds. […] Fluorophores were diluted in PBS. For comparison with previous studies, 120 nmol Methylene Blue was injected systemically. Mice were administered blank PBS for control images (n=3 mice per group, 5 groups).
# (§5) In vivo biodistribution imaging. […] The peritoneal cavity was exposed and images were collected so that the bladder, adipose tissue, intestine, kidney, liver, muscle, pancreas, spleen, and stomach were visible within the field of view. For initial biodistribution studies images were collected immediately after injection and at 5, 15, 30, 60, 120, and 240 min following injection. […] Vehicle injected control animals were imaged on the same time course as fluorophore injected animals for initial testing or immediately following injection only for studies involving MB or PDAC tumor bearing mice to assess tissue autofluorescence for comparison to injected animals.
# (§6) Fluorophore biodistribution kinetics were measured using region of interest analysis on images collected of the peritoneal cavity. Mean fluorescence intensities in each organ or tissue type were measured from images collected at each time point. All intensities were normalized to the muscle intensity at that time point by dividing by the measured muscle intensity. Using the normalized fluorescence intensities for each organ or tissue type, mean intensities were calculated for each group.
# (§7) Upon completion of initial biodistribution studies, animals were euthanized and their organs were resected.
# healthy CD-1 mice [2] = assay: In vivo biodistribution imaging after systemic administration; conditions: for pancreas penetration / specificity: normal pancreas, systemic administration; for clearance route and rate: 100 nmol i.v. (MB 120 nmol); for organ accumulation (in vivo biodistribution): 100 nmol i.v., 4 h distribution phase
# Description: as §2, §3, §4, §5, §6, §7
# pancreas tissue = assay: Ex vivo staining of pancreas tissue from healthy and PDAC mice; design: species or system mouse
# Source text: Thus 12 enabled ex vivo staining to distinguish the features of healthy and PDAC tissue.
# PDAC tumor tissue = assay: Intraoperative fluorescence imaging and ex vivo microscopy in PDAC tumor bearing mice; design: species or system mouse; conditions: 100 nmol systemic, n=5 PDAC mice, monitored over 1.5 h
# Description: Systemic administration of fluorescent compounds. […] Fluorophores were diluted in PBS.
# In vivo biodistribution imaging.
# Ex vivo fluorescence microscopy, pathology, and immunofluorescence staining. Resected pancreas tissue from compound 12 in vivo biodistribution studies with PDAC tumor bearing mice was fixed with 2% PFA for 12 h, flash frozen in optimal cutting temperature (OCT) compound with liquid nitrogen, and stored at −80° C. Cryosections were cut at 10 μm onto Superfrost Plus slides (Fisherbrand, Fisher Scientific). Slides were mounted with Fluoromount-G (Southern Biotech, Birmingham, Ala.) and coverslipped. […] Images were acquired on an Axio Observer inverted fluorescence microscope (Zeiss, Thornwood, N.Y.) at 10, 20, or 40× magnification. […] Color images were collected using an Axiocam 105 camera (Zeiss) and fluorescence images were collected using an Axiocam 506 camera (Zeiss) where a 605±35 nm or 525±25 nm bandpass emission filter was used for compound 12 or Atto 488 fluorescence image collection, respectively.
# Compound 12 was systemically administered to n=5 genetically modified PDAC mice. Pancreas specific fluorescence was monitored over 1.5 h. […] FIGS. 12B and 12C show real-time intraoperative fluorescence imaging of compound 12 in the PDAC mice. […]
# [3] = UV-Vis absorption and fluorescence spectroscopy; type: physicochemical; design: Brightness: unit not given here; conditions: for pH and solvent sensitivity of UV and fluorescence spectra: 10-15 μM, aqueous 10% DMSO with HCl, NaOH or pH 7.4 buffer, various solvents; for Quantum yield / λmax em / Brightness / Stokes shift: pH 7.4 buffer; for Extinction coefficient / λmax abs: pH 7.4 phosphate buffer, 10% DMSO
# Source text: UV-Vis absorption and fluorescence spectroscopy. UV-Vis spectra were collected with a Cary 50 UV-Vis spectrophotometer at room temperature, using a 1-cm quartz cuvette. Fluorescence spectra were collected on a Cary Eclipse fluorescence spectrophotometer (Agilent Technologies). All absorbance spectra were reference corrected. Fluorescence spectra were corrected for the wavelength dependent response of the R928 photomultiplier tube using a manufacturer generated correction file. Quantum yields are reported as the average of multiple measurements using multiple references. Excitation emission matrices (EEMs) were collected over various spectral regions, using 5-nm step sizes for emission and 10-nm step sizes for excitation. The band pass for excitation and emission was 5 to 10 nm.
# Probes 1-13 were screened for pH and solvent sensitivity. Solvent sensitivity or dependence is at least partially attributable to differences in the equilibria between tautomeric forms of the compounds in the various solvents evaluated. The fluorophore concentrations ranged from 10-15 μM. Aqueous solutions contained 10% DMSO and 12.5 mM HCl, 12.5 mM NaOH, or pH 7.4 phosphate buffer.
# Capan-1 cells [4] = assay: Cell viability by CellTiter-Blue assay; type: cell-based, human; conditions: Capan-1, 24 h incubation, read-out: IC50 (cytotoxicity, cell viability)
# Description: (§1) Cell culture. The human PDAC cell line Capan-1 was obtained from Dr. Rosalie Sears' laboratory and maintained in RPMI medium (Gibco) in a humid atmosphere at 37° C. with 5% CO2. All media were supplemented with 10% (v/v) fetal bovine serum (FBS), and 1% (v/v) penicillin/streptomycin. The cell viability was determined by Cell Titer-Blue® assay (Promega Corporation). Monolayers of 10^4 Capan-1 cells were seeded in triplicate in 96 well plates and incubated with decreasing concentration from 100 μM of each compound in growth media containing 10% FBS. After 24 h incubation time, 20 μL of CellTiter-Blue® reagent was added into each well, and culture cells were incubated for additional 2 h. Fluorescence intensity in each well was recorded at 560/590 nm in a SpectraMax® M5 Microplate Reader (Molecular Devices, LLC). The half maximal inhibitory concentration (IC50) of these three compounds were determined from interpolating values in the graph (% cell viability vs. fluorophore concentration). For comparison of cellular uptake rate in Capan-1 cells, absorbance of media was measured as background, and absorbance of supernatant was obtained to determine the cellular uptake by using absorbance of 10 μM fluorophore in cell free media as standard reference.
# In vitro cell viability was assessed for compounds 2, 12 and 13 in a representative PDAC cell line, Capan-1. […]
# Capan-1 cells [5] = assay: Subcellular localization by live cell imaging with organelle trackers; type: cell-based, human; conditions: Capan-1, 0.5 μM, 1 h incubation
# Description: In vitro live cell imaging. Monolayers of 10^4 Capan-1 cells were seeded in triplicate in 8 well plates and incubated for 24 h in growth media containing 10% FBS and allowed to attach. For subcellular colocalization experiments, media was extracted and cells were washed with PBS, and phenol red-free growth medium was added to each well. Organelle trackers were added to each well, and incubated with the compound (final concentration 0.5 μM) of interest for 1 h. Cells were then washed with PBS and then fixed with 2% paraformaldehyde (PFA). Fluorescence microscopy was carried out using a Zeiss inverted microscope with an Axioscan fluorescence camera for imaging. Final concentration of organelle trackers used in this experiments, DAPI (4,6-diamidino-2-phenylindole) 0.5 μM, MitoTracker® Green (benzoxazolium 2-[3-[5,6-dichloro-1,3-bis[[4-(chloromethyl)-phenyl]methyl]-1,3-dihydro-2H-benzimidazol-2-ylidene]-1-propenyl]-3-methyl-chloride 201860-17-5v, ThermoFisher Scientific) 0.5 μM, and ER-Tracker™ Green (BODIPY® FL dye and glibenclamide; ThermoFisher Scientific) 1 μM.
# The subcellular localization of 2, 12 and 13 was investigated in Capan-1 cells after 1 h incubation time. […] FIGS. 6A, 7A, and 8A show the red fluorescence of the three compounds, respectively, as well as blue fluorescence with DAPI (4,6-diamidino-2-phenylindole) FIGS. 6C, 7C, 8C) and green fluorescence with organelle-specific fluorescent probes—ER-Tracker™ Green (BODIPY® FL dye and glibenclamide; ThermoFisher Scientific) (FIGS. 6E, 7E, 8E) and MitoTracker® Green (benzoxazolium 2-[3-[5,6-dichloro-1,3-bis[[4-(chloromethyl)-phenyl]methyl]-1,3-dihydro-2H-benzimidazol-2-ylidene]-1-propenyl]-3-methyl-chloride201860-17-5v; ThermoFisher Scientific) (FIGS. 6G, 7G, 8G). Also shown are composite overlays of (i) phase contrast+compound fluorescence (FIGS. 6B, 7B, 8B), (ii) DAPI+compound fluorescence (FIGS. 6D, 7D, 8D), (iii) DAPI+ER-Tracker™ Green+compound fluorescence (FIGS. 6F, 7F, 8F), and (iv) DAPI+MitoTracker® Green+compound fluorescence (FIGS. 6H, 7H, 8H).
# Capan-1 cells [6] = assay: In vitro time-dependent fluorophore uptake; type: cell-based, human; conditions: Capan-1, 10 μM
# Description: as §1
# In vitro time-dependent fluorophore uptake was also investigated in Capan-1 cells. […]
pancreas penetration / specificity (healthy CD-1 mice [2]),Extinction coefficient ([3]; methyl ether derivatives),SMILES,clearance route and rate (healthy CD-1 mice [2]),organ accumulation (in vivo biodistribution) (healthy CD-1 mice [2]),pH and solvent sensitivity of UV and fluorescence spectra [3],IC50 (Capan-1 cells [4]),site of intracellular localization (Capan-1 cells [5]),fluorophore uptake within 30 min of application (ranking) (Capan-1 cells [6]),also measured
improved pancreas specificity,17764 M⁻¹ cm⁻¹,"COC(=O)c1ccccc1C1=c2cc3c4c(c2Oc2c1ccc1cccc(OC)c21)CCC[N+]=4CCC3 [Compound 12, 15-methoxy-9-(2-(methoxycarbonyl)phenyl)-1,2,3,5,6,7-hexahydrobenzo[7,8]chromeno[2,3-f]pyrido[3,2,1-ij]quinolin-4-ium chloride]",both renal and hepatic clearance; also recorded: cleared more slowly than compound 2; also recorded: greater hepatic excretion rate,"accumulated in the kidney, pancreas, and intestine",insensitive to variations in pH or solvent,17.8 µM,extensive accumulation in the mitochondria,–,"ex vivo staining localization, cancerous (PDAC) tissue (pancreas tissue; PDAC mouse pancreas): localized in the PDAC-associated ductal epithelial cells; ex vivo staining localization, healthy mouse pancreas tissue (pancreas tissue; healthy mouse pancreas): uptake of 12 in its abundant acinar cell population; accumulation in PDAC tumor tissue vs surrounding tissue (PDAC tumor tissue): significantly higher than in the surrounding healthy tissue; also recorded: significantly higher than in the surrounding tissues and specific for the malignant cells; fluorescence SBR in the pancreas compared to surrounding organs (healthy CD-1 mice [2]; 4-h time point): highest and most persistent fluorescence SBR in the pancreas; uptake in normal pancreas tissue relative to MB (healthy CD-1 mice [2]; 12 100 nmol vs MB 120 nmol, i.v.): 4 fold; Quantum yield ([3]; excited at 480 nm): 11.38%; λmax em ([3]; excited at 480 nm): 622 nm; Brightness ([3]; methyl ether derivatives): 2022; Stokes shift ([3]; methyl ether derivatives): 40 nm; λmax abs ([3]; methyl ether derivatives): 582 nm"
improved pancreas specificity,"15,610 M^−1 · cm^−1",COC(=O)c1ccccc1-c1c2ccc(=O)cc-2oc2c1ccc1cccc(OC)c12 [Compound 2],significant renal clearance; also recorded: faster renal clearance than compounds 12 and 13,"preferentially accumulated in the pancreas, intestine and bladder",not affected by either solvent changes or by solution pH values above 2,–,within vesicular structures,the lowest,–
diminished pancreas accumulation,–,"COC(=O)c1ccccc1C1=c2cc3c4c(c2Oc2c1ccc1cccc(N)c21)CCC[N+]=4CCC3 [Compound 13, 15-amino-9-(2-(methoxycarbonyl)phenyl)-1,2,3,5,6,7-hexahydrobenzo[7,8]chromeno[2,3-f]pyrido[3,2,1-ij]quinolin-4-ium chloride]",cleared more slowly than compound 2,accumulated largely in the kidneys,"not pH dependent, but were modestly solvent sensitive",26.1 µM,extensive accumulation in the mitochondria,greatest fluorophore uptake,Quantum yield ([3]; excited at 630 nm): 0.66%; λmax em ([3]; excited at 630 nm): 740 nm; Brightness ([3]; seminaphthorhodamines): 85; Stokes shift ([3]; seminaphthorhodamines): 139 nm; Extinction coefficient ([3]; seminaphthorhodamines): 12808 M⁻¹ cm⁻¹; λmax abs ([3]; seminaphthorhodamines): 601 nm

SMILES,pancreas penetration / specificity (healthy CD-1 mice [2]),Extinction coefficient ([3]; methyl ether derivatives),clearance route and rate (healthy CD-1 mice [2]),organ accumulation (in vivo biodistribution) (healthy CD-1 mice [2]),pH and solvent sensitivity of UV and fluorescence spectra [3],IC50 (Capan-1 cells [4]),site of intracellular localization (Capan-1 cells [5]),fluorophore uptake within 30 min of application (ranking) (Capan-1 cells [6]),also measured
"CN(C)c1ccc2nc3ccc(=[N+](C)C)cc-3sc2c1 [MB, methylene blue, reference compound]",poor penetration into normal pancreas tissue; also recorded: diminished pancreas accumulation,–,–,–,–,–,–,–,clearance route and rate (healthy CD-1 mice [1]): preferentially and rapidly cleared through the renal system
